# According to PubChem BioAssay AID2060622 (Molecular Pharmacology Branch, DTP, NCI, 2025):
# System: 242566-281-R-J2-PDC complex spheroid viability
# Assay: Anticancer human tumor 242566-281-R-J2-PDC patient-derived pancreatic carcinoma cell line growth inhibition [CLK]
# Details: for IC50: curve of first compound; for viability, T/C: stronger effect = lower value
# Procedure, shortened: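 Patient-derived tumor cells grown as complex spheroids with HUVEC endothelial cells and mesenchymal stem cells, treated with drug combinations. Concentrations descend in half-log steps from near clinical Cmax, or from 10 microM if Cmax unknown.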
# [1] = second compound 0.0316 µM, first compound 0.00316 µM
# [2] = second compound 0.0316 µM, first compound 0.01 µM
# [3] = second compound 0.0316 µM, first compound 0.0316 µM
# [4] = second compound 0.0316 µM, first compound 0.1 µM
# [5] = second compound 0.0316 µM, first compound 0.316 µM
# [6] = second compound 0.0316 µM, first compound 1 µM
# [7] = second compound 0.1 µM, first compound 0.00316 µM
# [8] = second compound 0.1 µM, first compound 0.01 µM
# [9] = second compound 0.1 µM, first compound 0.0316 µM
# [10] = second compound 0.1 µM, first compound 0.1 µM
# [11] = second compound 0.1 µM, first compound 0.316 µM
# [12] = second compound 0.1 µM, first compound 1 µM
# [13] = second compound 0.316 µM, first compound 0.00316 µM
# [14] = second compound 0.316 µM, first compound 0.01 µM
# [15] = second compound 0.316 µM, first compound 0.0316 µM
# [16] = second compound 0.316 µM, first compound 0.1 µM
# [17] = second compound 0.316 µM, first compound 0.316 µM
# [18] = second compound 0.316 µM, first compound 1 µM
# [19] = second compound 1 µM, first compound 0.00316 µM
# [20] = second compound 1 µM, first compound 0.01 µM
# [21] = second compound 1 µM, first compound 0.0316 µM
# [22] = second compound 1 µM, first compound 0.1 µM
# [23] = second compound 1 µM, first compound 0.316 µM
# [24] = second compound 1 µM, first compound 1 µM
# [25] = second compound 3.16 µM, first compound 0.00316 µM
# [26] = second compound 3.16 µM, first compound 0.01 µM
# [27] = second compound 3.16 µM, first compound 0.0316 µM
# [28] = second compound 3.16 µM, first compound 0.1 µM
# [29] = second compound 3.16 µM, first compound 0.316 µM
# [30] = second compound 3.16 µM, first compound 1 µM
# [31] = second compound 10 µM, first compound 0.00316 µM
# [32] = second compound 10 µM, first compound 0.01 µM
# [33] = second compound 10 µM, first compound 0.0316 µM
# [34] = second compound 10 µM, first compound 0.1 µM
# [35] = second compound 10 µM, first compound 0.316 µM
# [36] = second compound 10 µM, first compound 1 µM
# 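Also: spheroids exposed to compounds for 7 days before readout.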
# 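For viability, T/C in this document: 100% = DMSO vehicle control wells.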
structure (smiles),measurement,setting,value
CCc1c2c(nc3ccc(O)cc13)-c1cc3c(c(=O)n1C2)COC(=O)[C@]3(O)CC + CN1CCN(c2cc(C(=O)Nc3cc4cc(-c5cnn(C)c5)ccc4cn3)ccn2)CC1,IC50,second compound 0.0316 µM,8.95 nM
same,IC50,second compound 0.1 µM,4.12 nM
same,IC50,second compound 0.316 µM,< 3.16 nM
same,IC50,second compound 1 µM,< 3.16 nM
same,IC50,second compound 3.16 µM,< 3.16 nM
same,IC50,second compound 10 µM,< 3.16 nM
same,"viability, T/C",[1],75.4%
same,"viability, T/C",[2],47.6%
same,"viability, T/C",[3],17.3%
same,"viability, T/C",[4],8.08%
same,"viability, T/C",[5],4.41%
same,"viability, T/C",[6],2.2%
same,"viability, T/C",[7],57%
same,"viability, T/C",[8],26.9%
same,"viability, T/C",[9],9.57%
same,"viability, T/C",[10],5.51%
same,"viability, T/C",[11],3.73%
same,"viability, T/C",[12],1.87%
same,"viability, T/C",[13],13.3%
same,"viability, T/C",[14],7.58%
same,"viability, T/C",[15],4.52%
same,"viability, T/C",[16],2.86%
same,"viability, T/C",[17],1.79%
same,"viability, T/C",[18],1.15%
same,"viability, T/C",[19],3.62%
same,"viability, T/C",[20],3.2%
same,"viability, T/C",[21],2.53%
same,"viability, T/C",[22],2.3%
same,"viability, T/C",[23],1.39%
same,"viability, T/C",[24],1.39%
same,"viability, T/C",[25],5.73%
same,"viability, T/C",[26],5.04%
same,"viability, T/C",[27],3.5%
same,"viability, T/C",[28],3.24%
same,"viability, T/C",[29],2.82%
same,"viability, T/C",[30],1.82%
same,"viability, T/C",[31],1.17%
same,"viability, T/C",[32],0.88%
same,"viability, T/C",[33],0.45%
same,"viability, T/C",[34],0.5%
same,"viability, T/C",[35],0.49%
same,"viability, T/C",[36],0.31%
CCN1CCN(Cc2ccc(Nc3ncc(F)c(-c4cc(F)c5nc(C)n(C(C)C)c5c4)n3)nc2)CC1 + CNC(=O)c1ccc(Nc2nc(OC3CCCC3)c3c(-c4ccc5nc(C)oc5c4)c[nH]c3n2)c(OC)c1,IC50,second compound 0.0316 µM,> 1000 nM
same,IC50,second compound 0.1 µM,> 1000 nM
same,IC50,second compound 0.316 µM,> 1000 nM
same,IC50,second compound 1 µM,> 1000 nM
same,IC50,second compound 3.16 µM,> 1000 nM
same,IC50,second compound 10 µM,> 1000 nM
same,"viability, T/C",[1],103%
same,"viability, T/C",[2],106%
same,"viability, T/C",[3],92%
same,"viability, T/C",[4],126%
same,"viability, T/C",[5],136%
same,"viability, T/C",[6],154%
same,"viability, T/C",[7],76.5%
same,"viability, T/C",[8],109%
same,"viability, T/C",[9],95.7%
same,"viability, T/C",[10],104%
same,"viability, T/C",[11],122%
same,"viability, T/C",[12],153%
same,"viability, T/C",[13],91.6%
same,"viability, T/C",[14],98%
same,"viability, T/C",[15],79.2%
same,"viability, T/C",[16],117%
same,"viability, T/C",[17],125%
same,"viability, T/C",[18],156%
same,"viability, T/C",[19],74.5%
same,"viability, T/C",[20],86.8%
same,"viability, T/C",[21],84.8%
same,"viability, T/C",[22],96.2%
same,"viability, T/C",[23],134%
same,"viability, T/C",[24],142%
same,"viability, T/C",[25],63.2%
same,"viability, T/C",[26],61%
same,"viability, T/C",[27],72.1%
same,"viability, T/C",[28],85.7%
same,"viability, T/C",[29],118%
same,"viability, T/C",[30],123%
same,"viability, T/C",[31],55.1%
same,"viability, T/C",[32],59.8%
same,"viability, T/C",[33],75.4%
same,"viability, T/C",[34],80.5%
same,"viability, T/C",[35],101%
same,"viability, T/C",[36],124%
